Results reported in publication PMC12156367, “Synthesis and Biological Evaluation of Seco-Coumarin/Furoxan Hybrids as Potent Anti-Tumor Agents to Overcome Multidrug Resistance via Multiple Mechanisms” (Molecules, 2025).

Legend:
[1] = test system: MCF-7/ADR; assay: Antiproliferative activity of 9e after pre-treatment with inhibitors (MTT); assay type: cell-based, human
Protocol: (§1) Following harvest during logarithmic growth, cells were plated in 96-well culture plates at an initial density of 5000 cells per well. Incubate the plate overnight at 37 °C to allow the cells to adhere. Following the overnight incubation, introduce the compound at the predetermined concentration into each well, and then return the plate to the incubator for an additional 48 h culture period. After the 48 h treatment, carefully aspirate the drug-containing medium from each well. Subsequently, add 150 μL of 0.5 mg/mL MTT (Beyotime, China) solution to each well. Protect the plate from light and incubate it at 37 °C for 4 h to allow the formation of formazan crystals. Finally, add 150 μL of DMSO (Sinopharm, China) to each well and gently mix to ensure complete dissolution of the formazan crystals. The OD value at 570nm was measured using a microplate reader (Thermo Fisher, Waltham, MA, USA). Cell proliferation inhibition was determined using the following formula:Inhibition (%) = [(ODDMSO − ODcompd.)/(ODDMSO − ODblank)] × 100
Carboxy-PTIO (NO scavenger), NAC (N-acetylcysteine), tariquidar (P-glycoprotein inhibitor), and Fer-1 (ferrostatin-1, ferroptosis inhibitor) were purchased from Beyotime. MCF-7/ADR (5000 cells/well) were plated in 96-well plates and cultured overnight. Then, the cells were pre-treated with specified concentrations of inhibitors for 1 h and incubated with 9e (10 or 20 nM) or DMSO (24 h, 37 °C). Experimental procedures were the same as the method for the in vitro antiproliferative assay.

[2] = test system: P-gp in MCF-7/ADR; assay: Rh-123 accumulation assay (flow cytometry); assay type: cell-based, human; details: 9e 20 nM, vs DMSO
Protocol: Harvest the MCF-7/ADR cells and seed them into a 96-well plate (2 × 10^5 cells/well). Following overnight culture, cells were treated with 9e (10 and 20 nM) or DMSO (vehicle control) for 60 min. After aspiration of the medium, cells were washed thrice with PBS and subsequently incubated with Rh123 solution (1 μg/mL; Sigma-Aldrich) for 60 min. Subsequently, wash three times with PBS, then digest and centrifuge them (1000× g, 5 min). Resuspend the cells with 1 mL of PBS and centrifuge again (1000× g, 5 min). Finally, after resuspending the cells with 200 μL of PBS, the fluorescence of Rh123 was analyzed by flow cytometry (Beckman, Brea, CA, USA).

[3] = test system: LC3 in MCF-7/ADR; assay: LC3 immunofluorescence; assay type: cell-based, human; details: 9e 10 nM, 24 hours
Protocol: MCF-7/ADR (1 × 10^5 cells/dish) were seeded in confocal dishes and cultured overnight. After being treated with 9e (20 nM) for 24 h, cells were fixed with 4% paraformaldehyde (Servicebio, Wuhan, China) for 15 min at room temperature. Then, they were washed three times with PBS. Next, cells were blocked with a solution containing 3% BSA (Biofroxx, Einhausen, Germany) and 0.3% Triton X-100 (Beyotime, Shanghai, China) for 1 h at room temperature. The cells were incubated with the primary antibody, which was diluted in 3% BSA and 0.3% Triton X-100, overnight at 4 °C. After three washes with PBS, the cells were incubated with the fluorescent secondary antibody (Alexa Fluor 488 and Alexa Fluor 594, Bioss, Beijing, China) for 1 h at room temperature. Following another three washes with PBS, the cellular DNA was stained with Hoechst 33,342 dye (10 min, 37 °C).

[4] = test system: MCF-7/ADR; assay: Cell apoptosis analysis (Annexin V-FITC/PI flow cytometry); assay type: cell-based, human; details: 9e 10 nM, control 5.53%
Protocol: MCF-7/ADR (2 × 10^5 cells/well) were plated in 6-well plates and cultured overnight. Following 24 h treatment with specified concentrations of 9e, cells were harvested and analyzed by Annexin V-FITC apoptosis detection kit (Beyotime, Shanghai, China). Cell populations were subsequently analyzed by flow cytometry (Beckman, Brea, CA, USA).

[5] = test system: human normal mammary epithelial cell lines MCF-10A; assay: Cytotoxicity in normal mammary epithelial cells (MTT); assay type: cell-based; details: normal mammary epithelial cell line
Source text: The MDA-MB-468 cell line was procured from the Cell Bank of the Chinese Academy of Sciences. The MCF-7, MCF-7/ADR, MCF-10A, and MDA-MB-231 cell lines were kindly provided by Professor Xianyi Sha (Fudan University, Shanghai, China). The HUVEC cells were kindly provided by Associate Professor Hulie Zeng (Fudan University, Shanghai, China). The MDA-MB-468, MDA-MB-231, MCF-7, MCF-10A, and HUVEC cells were cultivated in DMEM (Service Biotechnology, China) supplemented with 10% FBS (Capricorn Scientific, Germany) and 1% penicillin-streptomycin (Meilunbio, Dalian, China). For the MCF-7/ADR cells, they were cultured in RPMI-1640 (Service Biotechnology, Wuhan, China), containing 10% FBS and 1% penicillin-streptomycin. […]
Following harvest during logarithmic growth, cells were plated in 96-well culture plates at an initial density of 5000 cells per well. […] The OD value at 570nm was measured using a microplate reader (Thermo Fisher, Waltham, MA, USA). Cell proliferation inhibition was determined using the following formula:Inhibition (%) = [(ODDMSO − ODcompd.)/(ODDMSO − ODblank)] × 100
GraphPad Prism software 9 was used to calculate the IC50 values. […] For instance, in the cell experiment, we recorded the cell viability values at different drug concentrations. […]

[6] = test system: MCF-7/ADR (doxorubicin-resistant human breast cancer cell line); assay: In vitro antiproliferative assay (MTT, 48 h), MCF-7/ADR; assay type: cell-based
Source text: The MDA-MB-468 cell line was procured from the Cell Bank of the Chinese Academy of Sciences. The MCF-7, MCF-7/ADR, MCF-10A, and MDA-MB-231 cell lines were kindly provided by Professor Xianyi Sha (Fudan University, Shanghai, China). The HUVEC cells were kindly provided by Associate Professor Hulie Zeng (Fudan University, Shanghai, China). The MDA-MB-468, MDA-MB-231, MCF-7, MCF-10A, and HUVEC cells were cultivated in DMEM (Service Biotechnology, China) supplemented with 10% FBS (Capricorn Scientific, Germany) and 1% penicillin-streptomycin (Meilunbio, Dalian, China). For the MCF-7/ADR cells, they were cultured in RPMI-1640 (Service Biotechnology, Wuhan, China), containing 10% FBS and 1% penicillin-streptomycin. Additionally, 500 ng/mL of doxorubicin (Sigma-Aldrich, Saint Louis, MO, USA) was incorporated into the RPMI-1640 culture medium to keep drug resistance. All cell lines were cultured in a humidified incubator at 37 °C with a 5% CO2 atmosphere.
as §1
GraphPad Prism software 9 was used to calculate the IC50 values. The specific calculation process is as follows: Firstly, we input the experimental data into Prism. The data include the concentrations of the experimental compounds and the corresponding biological response values. For instance, in the cell experiment, we recorded the cell viability values at different drug concentrations. Subsequently, we select the option of “Dose–Response–Nonlinear Regression” in the “Analyze” menu for curve fitting. Generally speaking, we use the model of “[Inhibitor] vs. normalized response—Variable slope”. The Prism software fits the data through the nonlinear least squares method and finds the parameter values that can minimize the difference between the model’s predicted values and the actual data. After completing the curve fitting, the software will directly provide the estimated values and confidence intervals of the IC50 value and other relevant parameters. Meanwhile, it will also offer goodness-of-fit indices, such as the correlation coefficient, to evaluate the quality of the fitting. Through the above method, we can accurately calculate the IC50 value, thereby assessing the intensity of the inhibitory or activating effect of the compound on the biological system.

With `COc1ccc(CCC(=O)c2ccc(OCCOc3no[n+]([O-])c3S(=O)(=O)c3ccccc3)cc2OC)cc1` [Compound 9e, 4-(2-(3-methoxy-4-(3-(4-methoxyphenyl)propanoyl)phenoxy)ethoxy)-3-(phenylsulfonyl)-1,2,5-oxadiazole 2-oxide] the “inhibitory activity after NAC pretreatment” value ([1]; 10 nM 9e + 1250 μM NAC) was “completely lost its inhibitory activity”, the “cell survival rate with NO scavenger Carboxy-PTIO” value ([1]; 20 nM 9e + 100 μM Carboxy-PTIO) was 53.7% and the “cells still inhibited with P-gp inhibitor tariquidar” value ([1]; 9e + 5 μM tariquidar) was 62%. For the same compound, the inhibition at 0.02 µM ([1]; Homo sapiens, NCI/ADR-RES, 9e 20 nM alone, read-out: proliferation inhibition rate) was 89%, the “Rh-123 accumulation (in words)” value [2] was “accumulated significantly” and the “fluorescence intensity of LC3” value [3] was “significantly increased”. For the same compound, the “apoptosis (Q2+Q3)” value [4] was 37.1%, the IC50 [5] was 13.2 µM and the IC50 ([6]; Homo sapiens, NCI/ADR-RES, MTT, 48 h, mean of three determinations) was 0.00302 µM. For the same compound, the “Selectivity Ratio IC50(MCF-7)/ IC50(MCF-7/ADR)” value ([6]; collateral sensitivity) was 1402.0.
